Data on six compounds can be found in patent publication US10231954B2, “Neurodegenerative therapies” (LYTIX BIOPHARMA AS, priority 2014, dated 2019).

Format in all cases: biochemical
One test addresses ERK5 (Homo sapiens, UniProt Q13164). The test is described as follows: Kinase profiling ERK5. The following applies: 100 micromolar inhibitor concentration, 100 is no change; for remaining activity at 100 µM: read-out: residual kinase activity, ERK5. From the text:
(§1) Any value less that 25 is considered to be highly significant inhibition.

The target of a further test is CDK2-Cyclin A (Homo sapiens, UniProt P24941). Briefly: Kinase profiling CDK2-Cyclin A. The following applies: 100 micromolar inhibitor concentration, 100 is no change; for remaining activity at 100 µM: read-out: residual kinase activity, CDK2-Cyclin A.
Text: as §1

The target of the next test is SIK3 (Homo sapiens, UniProt Q9Y2K2). The test is described as follows: Kinase profiling SIK3. The following applies: 100 micromolar inhibitor concentration, 100 is no change; for remaining activity at 100 µM: read-out: residual kinase activity, SIK3.
Text: as §1

The target in a further test is T1, TSSK1 (Homo sapiens, UniProt Q9BXA7).
T1 sequence (Q9BXA7 1-367): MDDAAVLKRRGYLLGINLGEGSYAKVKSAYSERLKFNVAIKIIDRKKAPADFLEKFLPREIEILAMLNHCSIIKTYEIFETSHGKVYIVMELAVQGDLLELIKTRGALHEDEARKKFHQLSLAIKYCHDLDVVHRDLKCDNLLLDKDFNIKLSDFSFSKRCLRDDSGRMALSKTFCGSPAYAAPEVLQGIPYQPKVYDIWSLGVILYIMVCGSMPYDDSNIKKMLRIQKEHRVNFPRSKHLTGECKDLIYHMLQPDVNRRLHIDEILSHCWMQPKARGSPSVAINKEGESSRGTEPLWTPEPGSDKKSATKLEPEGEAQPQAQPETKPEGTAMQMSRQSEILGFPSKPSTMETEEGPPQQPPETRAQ
The test is described as follows: Kinase profiling TSSK1. Particulars: 100 micromolar inhibitor concentration, 100 is no change; for remaining activity at 100 µM: read-out: residual kinase activity, TSSK1.
Text: as §1

For the next test, the target named is TTBK1 (Homo sapiens, UniProt Q5TCY1). The test is described as follows: Kinase profiling TTBK1. Particulars: 100 micromolar inhibitor concentration, 100 is no change; for remaining activity at 100 µM: read-out: residual kinase activity, TTBK1.
Text: as §1

The target of a further test is PIM2 (Homo sapiens, UniProt Q9P1W9). The test is described as follows: Kinase profiling PIM2. Particulars: 100 micromolar inhibitor concentration, 100 is no change; for remaining activity at 100 µM: read-out: residual kinase activity, PIM2.
Text: as §1

A further test deals with MST3 (Homo sapiens, UniProt Q9Y6E0). Briefly: Kinase profiling MST3. Particulars: 100 micromolar inhibitor concentration, 100 is no change; for remaining activity at 100 µM: read-out: residual kinase activity, MST3.
MST3, sequence (Q9Y6E0 whole entry, species assumed): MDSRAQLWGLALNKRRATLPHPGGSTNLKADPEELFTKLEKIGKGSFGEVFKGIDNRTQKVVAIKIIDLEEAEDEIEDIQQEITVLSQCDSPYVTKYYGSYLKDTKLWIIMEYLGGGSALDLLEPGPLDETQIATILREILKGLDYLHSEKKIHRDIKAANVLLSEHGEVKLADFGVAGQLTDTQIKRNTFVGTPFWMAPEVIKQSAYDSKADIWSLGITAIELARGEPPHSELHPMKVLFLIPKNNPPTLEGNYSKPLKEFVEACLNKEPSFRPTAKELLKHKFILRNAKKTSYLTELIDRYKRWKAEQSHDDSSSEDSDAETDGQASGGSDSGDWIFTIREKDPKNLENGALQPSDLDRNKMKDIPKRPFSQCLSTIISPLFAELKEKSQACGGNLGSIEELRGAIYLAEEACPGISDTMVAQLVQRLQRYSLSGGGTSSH
Text: as §1

The target of the next test is MST4 (Homo sapiens, UniProt Q9P289). Briefly: Kinase profiling MST4. Particulars: 100 micromolar inhibitor concentration, 100 is no change; for remaining activity at 100 µM: read-out: residual kinase activity, MST4.
Text: as §1

In the next test the target is MINK1 (Homo sapiens, UniProt Q8N4C8). Briefly: Kinase profiling MINK1. Particulars: 100 micromolar inhibitor concentration, 100 is no change; for remaining activity at 100 µM: read-out: residual kinase activity, MINK1.
MINK1, sequence (Q8N4C8 whole entry, species assumed): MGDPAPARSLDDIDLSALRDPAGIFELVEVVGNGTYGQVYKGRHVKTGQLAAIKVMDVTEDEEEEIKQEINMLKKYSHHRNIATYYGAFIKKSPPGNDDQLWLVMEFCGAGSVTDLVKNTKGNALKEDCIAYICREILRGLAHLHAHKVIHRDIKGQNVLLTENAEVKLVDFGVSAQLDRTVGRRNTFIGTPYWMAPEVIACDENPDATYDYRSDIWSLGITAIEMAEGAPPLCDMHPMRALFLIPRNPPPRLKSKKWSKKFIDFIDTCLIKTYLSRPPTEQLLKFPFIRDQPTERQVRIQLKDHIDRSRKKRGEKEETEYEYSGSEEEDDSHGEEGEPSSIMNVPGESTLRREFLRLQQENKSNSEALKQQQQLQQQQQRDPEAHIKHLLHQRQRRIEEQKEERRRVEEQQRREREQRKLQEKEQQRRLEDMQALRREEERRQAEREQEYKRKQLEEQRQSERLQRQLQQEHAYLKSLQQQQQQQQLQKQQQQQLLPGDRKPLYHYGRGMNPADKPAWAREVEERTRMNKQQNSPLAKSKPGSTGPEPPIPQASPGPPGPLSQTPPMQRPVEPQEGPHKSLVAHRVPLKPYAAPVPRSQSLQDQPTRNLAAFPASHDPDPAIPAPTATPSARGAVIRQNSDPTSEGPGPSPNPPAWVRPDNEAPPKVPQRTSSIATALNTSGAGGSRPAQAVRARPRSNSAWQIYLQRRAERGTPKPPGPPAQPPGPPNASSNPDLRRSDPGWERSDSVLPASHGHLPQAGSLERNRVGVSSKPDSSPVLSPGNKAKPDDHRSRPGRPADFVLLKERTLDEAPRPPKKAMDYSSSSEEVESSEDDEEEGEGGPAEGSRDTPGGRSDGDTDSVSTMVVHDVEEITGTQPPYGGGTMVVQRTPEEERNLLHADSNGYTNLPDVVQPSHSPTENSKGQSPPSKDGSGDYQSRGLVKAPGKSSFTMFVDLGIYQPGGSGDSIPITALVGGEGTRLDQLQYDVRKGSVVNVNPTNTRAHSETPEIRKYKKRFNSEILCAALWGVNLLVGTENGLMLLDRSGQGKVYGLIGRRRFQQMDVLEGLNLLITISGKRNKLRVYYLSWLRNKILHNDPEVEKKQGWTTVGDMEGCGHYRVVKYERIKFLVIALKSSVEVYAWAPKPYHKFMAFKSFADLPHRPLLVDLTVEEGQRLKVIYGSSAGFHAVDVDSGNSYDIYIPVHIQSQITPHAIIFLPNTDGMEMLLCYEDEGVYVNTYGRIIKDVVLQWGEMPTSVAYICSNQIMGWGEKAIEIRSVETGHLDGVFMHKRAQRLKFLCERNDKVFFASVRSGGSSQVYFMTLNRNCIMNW
Text: as §1

In another test the target is MEKK1 (Homo sapiens, UniProt Q13233). The test is described as follows: Kinase profiling MEKK1. Particulars: 100 micromolar inhibitor concentration, 100 is no change; for remaining activity at 100 µM: read-out: residual kinase activity, MEKK1.
MEKK1, sequence (Q13233 whole entry, species assumed): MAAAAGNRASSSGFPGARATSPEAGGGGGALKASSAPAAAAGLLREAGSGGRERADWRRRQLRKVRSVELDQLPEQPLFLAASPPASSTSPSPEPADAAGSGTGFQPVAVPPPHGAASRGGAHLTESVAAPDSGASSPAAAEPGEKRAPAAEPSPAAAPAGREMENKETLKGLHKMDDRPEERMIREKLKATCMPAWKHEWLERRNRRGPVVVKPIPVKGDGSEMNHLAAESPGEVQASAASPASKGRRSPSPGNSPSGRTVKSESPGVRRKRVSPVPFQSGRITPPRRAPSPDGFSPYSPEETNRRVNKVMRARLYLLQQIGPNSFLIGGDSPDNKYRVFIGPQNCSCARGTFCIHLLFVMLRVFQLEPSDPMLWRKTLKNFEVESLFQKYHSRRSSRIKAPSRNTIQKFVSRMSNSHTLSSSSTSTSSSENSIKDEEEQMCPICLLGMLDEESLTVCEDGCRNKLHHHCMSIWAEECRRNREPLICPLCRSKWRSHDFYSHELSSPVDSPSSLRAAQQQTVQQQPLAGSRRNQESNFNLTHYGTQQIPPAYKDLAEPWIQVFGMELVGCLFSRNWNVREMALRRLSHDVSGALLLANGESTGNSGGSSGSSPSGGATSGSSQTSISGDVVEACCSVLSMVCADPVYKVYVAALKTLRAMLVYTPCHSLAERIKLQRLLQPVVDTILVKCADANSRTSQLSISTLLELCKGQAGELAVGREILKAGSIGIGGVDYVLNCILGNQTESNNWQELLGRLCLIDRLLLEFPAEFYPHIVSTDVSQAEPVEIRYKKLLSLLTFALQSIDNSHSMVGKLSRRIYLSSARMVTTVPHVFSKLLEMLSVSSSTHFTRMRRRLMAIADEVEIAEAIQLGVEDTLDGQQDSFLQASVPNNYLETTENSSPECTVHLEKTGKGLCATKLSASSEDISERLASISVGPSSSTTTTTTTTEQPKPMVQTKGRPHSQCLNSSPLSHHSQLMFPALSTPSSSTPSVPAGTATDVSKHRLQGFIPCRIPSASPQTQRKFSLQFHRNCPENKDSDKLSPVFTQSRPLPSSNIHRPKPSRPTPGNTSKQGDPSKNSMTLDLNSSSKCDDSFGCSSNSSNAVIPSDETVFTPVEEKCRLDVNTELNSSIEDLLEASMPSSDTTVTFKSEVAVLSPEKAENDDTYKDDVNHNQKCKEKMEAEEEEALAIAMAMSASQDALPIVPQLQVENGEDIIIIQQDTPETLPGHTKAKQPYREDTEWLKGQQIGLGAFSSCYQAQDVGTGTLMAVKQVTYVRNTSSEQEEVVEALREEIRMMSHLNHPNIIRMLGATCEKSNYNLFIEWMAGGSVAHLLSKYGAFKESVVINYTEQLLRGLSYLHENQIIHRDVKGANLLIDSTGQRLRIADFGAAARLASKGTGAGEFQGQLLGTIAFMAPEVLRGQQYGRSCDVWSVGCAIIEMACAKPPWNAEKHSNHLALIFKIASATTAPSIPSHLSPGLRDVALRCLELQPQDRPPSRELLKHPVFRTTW
Text: as §1

The target in a further test is TESK1 (Homo sapiens, UniProt Q15569). The test is described as follows: Kinase profiling TESK1. The following applies: 100 micromolar inhibitor concentration, 100 is no change; for remaining activity at 100 µM: read-out: residual kinase activity, TESK1.
TESK1, sequence (Q15569 whole entry, species assumed): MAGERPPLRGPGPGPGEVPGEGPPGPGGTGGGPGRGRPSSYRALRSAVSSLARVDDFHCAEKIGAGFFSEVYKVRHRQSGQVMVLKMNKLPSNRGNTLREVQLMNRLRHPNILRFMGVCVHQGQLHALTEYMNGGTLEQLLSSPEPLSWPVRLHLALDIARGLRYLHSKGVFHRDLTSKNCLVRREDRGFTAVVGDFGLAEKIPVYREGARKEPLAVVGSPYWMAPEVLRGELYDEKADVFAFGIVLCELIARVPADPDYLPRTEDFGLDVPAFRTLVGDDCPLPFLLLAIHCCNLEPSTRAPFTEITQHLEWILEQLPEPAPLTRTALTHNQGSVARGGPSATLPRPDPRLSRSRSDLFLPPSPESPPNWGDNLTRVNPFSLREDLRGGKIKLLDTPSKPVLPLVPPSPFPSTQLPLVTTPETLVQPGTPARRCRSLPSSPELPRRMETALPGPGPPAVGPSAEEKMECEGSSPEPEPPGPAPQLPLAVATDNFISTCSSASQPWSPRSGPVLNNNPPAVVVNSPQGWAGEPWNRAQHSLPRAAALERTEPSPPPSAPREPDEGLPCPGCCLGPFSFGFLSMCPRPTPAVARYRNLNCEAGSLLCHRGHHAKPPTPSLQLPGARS
Text: as §1

In a further test the target is WNK1 (Homo sapiens, UniProt Q9H4A3). Briefly: Kinase profiling WNK1. Particulars: 100 micromolar inhibitor concentration, 100 is no change; for remaining activity at 100 µM: read-out: residual kinase activity, WNK1.
Text: as §1

The target in another test is T2, ZAP70 (Homo sapiens, UniProt P43403).
T2 sequence (P43403 1-619): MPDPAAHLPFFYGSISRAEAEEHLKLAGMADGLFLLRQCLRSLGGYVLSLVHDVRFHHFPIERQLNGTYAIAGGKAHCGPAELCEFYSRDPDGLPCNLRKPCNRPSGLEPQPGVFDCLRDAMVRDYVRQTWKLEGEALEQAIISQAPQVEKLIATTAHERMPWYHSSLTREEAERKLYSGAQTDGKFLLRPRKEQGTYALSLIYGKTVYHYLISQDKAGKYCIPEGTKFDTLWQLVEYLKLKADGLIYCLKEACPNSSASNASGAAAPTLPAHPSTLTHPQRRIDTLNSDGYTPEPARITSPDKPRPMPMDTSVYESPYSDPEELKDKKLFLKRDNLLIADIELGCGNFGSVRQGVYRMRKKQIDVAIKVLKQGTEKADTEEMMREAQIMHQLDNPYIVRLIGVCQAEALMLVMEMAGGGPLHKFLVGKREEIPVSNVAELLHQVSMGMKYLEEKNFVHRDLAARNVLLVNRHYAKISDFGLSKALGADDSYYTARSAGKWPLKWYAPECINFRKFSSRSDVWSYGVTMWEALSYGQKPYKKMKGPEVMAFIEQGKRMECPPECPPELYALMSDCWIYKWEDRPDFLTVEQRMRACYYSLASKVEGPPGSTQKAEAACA
The test is described as follows: Kinase profiling ZAP70. The following applies: 100 micromolar inhibitor concentration, 100 is no change; for remaining activity at 100 µM: read-out: residual kinase activity, ZAP70.
Text: as §1

The target of a further test is TIE2 (Homo sapiens, UniProt Q02763). The test is described as follows: Kinase profiling TIE2. Particulars: 100 micromolar inhibitor concentration, 100 is no change; for remaining activity at 100 µM: read-out: residual kinase activity, TIE2.
TIE2, sequence (Q02763 23-1124, species assumed): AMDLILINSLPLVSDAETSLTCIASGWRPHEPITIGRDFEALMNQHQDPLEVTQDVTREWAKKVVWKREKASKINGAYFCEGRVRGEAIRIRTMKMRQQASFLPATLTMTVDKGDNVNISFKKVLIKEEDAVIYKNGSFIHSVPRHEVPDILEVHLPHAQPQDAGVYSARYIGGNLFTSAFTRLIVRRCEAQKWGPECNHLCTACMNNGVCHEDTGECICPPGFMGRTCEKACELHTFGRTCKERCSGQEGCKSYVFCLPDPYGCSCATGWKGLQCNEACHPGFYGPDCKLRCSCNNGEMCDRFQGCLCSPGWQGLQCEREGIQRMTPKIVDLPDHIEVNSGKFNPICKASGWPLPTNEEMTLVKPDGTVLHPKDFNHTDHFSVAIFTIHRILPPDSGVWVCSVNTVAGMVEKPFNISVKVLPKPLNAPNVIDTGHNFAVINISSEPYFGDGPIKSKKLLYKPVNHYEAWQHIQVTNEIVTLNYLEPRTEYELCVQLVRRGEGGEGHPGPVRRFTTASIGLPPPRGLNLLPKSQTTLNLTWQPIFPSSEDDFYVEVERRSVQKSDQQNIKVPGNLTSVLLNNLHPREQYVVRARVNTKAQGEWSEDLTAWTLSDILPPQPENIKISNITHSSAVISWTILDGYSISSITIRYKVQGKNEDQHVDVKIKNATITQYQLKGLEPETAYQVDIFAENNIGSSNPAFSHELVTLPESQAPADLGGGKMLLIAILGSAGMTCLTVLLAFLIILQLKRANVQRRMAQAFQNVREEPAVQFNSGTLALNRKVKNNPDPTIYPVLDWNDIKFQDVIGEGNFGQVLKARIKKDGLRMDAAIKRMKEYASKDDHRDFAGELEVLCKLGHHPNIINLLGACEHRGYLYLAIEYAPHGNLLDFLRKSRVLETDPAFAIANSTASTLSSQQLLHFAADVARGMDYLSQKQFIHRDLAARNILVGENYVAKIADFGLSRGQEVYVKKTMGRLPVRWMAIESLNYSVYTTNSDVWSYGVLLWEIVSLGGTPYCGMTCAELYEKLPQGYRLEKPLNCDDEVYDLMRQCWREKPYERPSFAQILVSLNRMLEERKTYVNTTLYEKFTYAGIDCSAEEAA
Text: as §1

The target of another test is IR (Homo sapiens, UniProt P06213). Briefly: Kinase profiling IR. The following applies: 100 micromolar inhibitor concentration, 100 is no change; for remaining activity at 100 µM: read-out: residual kinase activity, IR.
Text: as §1

The target of a further test is IRR (Homo sapiens, UniProt P14616). Briefly: Kinase profiling IRR. Particulars: 100 micromolar inhibitor concentration, 100 is no change; for remaining activity at 100 µM: read-out: residual kinase activity, IRR.
Text: as §1

The next test addresses PDGFRA (Homo sapiens, UniProt P16234). The test is described as follows: Kinase profiling PDGFRA. The following applies: 100 micromolar inhibitor concentration, 100 is no change; for remaining activity at 100 µM: read-out: residual kinase activity, PDGFRA.
Text: as §1

For the compound `CC(=O)Nc1nc2ccccc2s1` [Compound 03-32], the “residual kinase activity, ERK5” value on ERK5 was 66. Besides, the “residual kinase activity, CDK2-Cyclin A” value on CDK2-Cyclin A stood at 76. In addition, the “residual kinase activity, SIK3” value at SIK3 was determined as 89. The “residual kinase activity, TSSK1” value on TSSK1 was found to be 83. Besides, the “residual kinase activity, TTBK1” value on TTBK1 is 80. The “residual kinase activity, PIM2” value on PIM2 is on record as 100. Moreover, at MST3, the “residual kinase activity, MST3” value amounted to 87. In addition, the “residual kinase activity, MST4” value at MST4 came to 110. The “residual kinase activity, MINK1” value at MINK1 was found to be 92. Further, the “residual kinase activity, MEKK1” value on MEKK1 was 93. The “residual kinase activity, TESK1” value at TESK1 was 95. Also, the “residual kinase activity, WNK1” value at WNK1 is recorded as 98. Also, on ZAP70, the “residual kinase activity, ZAP70” value is recorded as 111. Further, on TIE2, the “residual kinase activity, TIE2” value turned out to be 112. Further, the “residual kinase activity, IR” value on IR is reported as 87. Also, at IRR, the “residual kinase activity, IRR” value amounted to 63. For the same compound, the “residual kinase activity, PDGFRA” value at PDGFRA is listed as 78.
`O=C(Nc1nc2cc(O)ccc2s1)c1cccnc1` [Compound 03-33]: the “residual kinase activity, ERK5” value on ERK5 was determined as 58. Besides, the “residual kinase activity, CDK2-Cyclin A” value on CDK2-Cyclin A turned out to be 92. Moreover, the “residual kinase activity, SIK3” value at SIK3 came out at 92. For the same compound, the “residual kinase activity, TSSK1” value at TSSK1 came out at 75. Moreover, on TTBK1, the “residual kinase activity, TTBK1” value was determined as 89. The “residual kinase activity, PIM2” value on PIM2 is given as 69. Besides, at MST3, the “residual kinase activity, MST3” value worked out at 90. Besides, the “residual kinase activity, MST4” value on MST4 worked out at 103. Besides, the “residual kinase activity, MINK1” value on MINK1 was determined as 51. Also, the “residual kinase activity, MEKK1” value on MEKK1 came to 107. Moreover, the “residual kinase activity, TESK1” value on TESK1 was found to be 102. The “residual kinase activity, WNK1” value on WNK1 came out at 103. On ZAP70, the “residual kinase activity, ZAP70” value is recorded as 110. Further, the “residual kinase activity, TIE2” value on TIE2 worked out at 100. In addition, the “residual kinase activity, IR” value at IR is 105. In addition, at IRR, the “residual kinase activity, IRR” value was 51. For the same compound, the “residual kinase activity, PDGFRA” value on PDGFRA is on record as 61.
`O=C(Nc1nc2ccc(O)cc2s1)c1ccccc1` [Compound 03-60]: the “residual kinase activity, ERK5” value at ERK5 was 30. Moreover, at CDK2-Cyclin A, the “residual kinase activity, CDK2-Cyclin A” value is listed as 78. Besides, the “residual kinase activity, SIK3” value on SIK3 was determined as 42. The “residual kinase activity, TSSK1” value on TSSK1 worked out at 27. Further, the “residual kinase activity, TTBK1” value at TTBK1 is recorded as 46. Besides, the “residual kinase activity, PIM2” value on PIM2 turned out to be 67. The “residual kinase activity, MST3” value on MST3 was determined as 54. The “residual kinase activity, MST4” value at MST4 turned out to be 71. At MINK1, the “residual kinase activity, MINK1” value is on record as 7. Besides, the “residual kinase activity, MEKK1” value on MEKK1 is reported as 105. Also, the “residual kinase activity, TESK1” value at TESK1 turned out to be 65. Also, the “residual kinase activity, WNK1” value at WNK1 was 108. Besides, at ZAP70, the “residual kinase activity, ZAP70” value was 109. For the same compound, on TIE2, the “residual kinase activity, TIE2” value is reported as 41. The “residual kinase activity, IR” value at IR is given as 31. The “residual kinase activity, IRR” value at IRR worked out at 31. Further, on PDGFRA, the “residual kinase activity, PDGFRA” value stood at 29.
`CC(=O)Nc1nc2cc(C(F)(F)F)ccc2s1` [Compound 03-73]: the remaining activity at 100 µM on ERK5 was found to be 67%; on CDK2-Cyclin A it was 96%; on SIK3 it was 103%; at TSSK1, 71%; on TTBK1, 94%; at PIM2, 63%. In addition, the remaining activity at 100 µM at MST3 was 89%; at MST4, 91%; at MINK1, 77%; at MEKK1 it was 111%; at TESK1, 115%; on WNK1, 128%. Moreover, the remaining activity at 100 µM on ZAP70 came to 115%; at TIE2, 92%; at IR, 102%; on IRR, 61%; on PDGFRA, 34%.
On to `CC(=O)Nc1nc2cc(C)ccc2s1` [Compound 03-76], for which the “residual kinase activity, ERK5” value on ERK5 worked out at 62. In addition, the “residual kinase activity, CDK2-Cyclin A” value on CDK2-Cyclin A is on record as 72. Moreover, at SIK3, the “residual kinase activity, SIK3” value was 103. The “residual kinase activity, TSSK1” value on TSSK1 amounted to 79. Moreover, on TTBK1, the “residual kinase activity, TTBK1” value is listed as 84. On PIM2, the “residual kinase activity, PIM2” value is on record as 82. For the same compound, the “residual kinase activity, MST3” value on MST3 was determined as 85. In addition, the “residual kinase activity, MST4” value at MST4 amounted to 103. Also, the “residual kinase activity, MINK1” value at MINK1 came out at 63. Besides, the “residual kinase activity, MEKK1” value at MEKK1 stood at 107. The “residual kinase activity, TESK1” value on TESK1 is on record as 106. For the same compound, the “residual kinase activity, WNK1” value at WNK1 came out at 104. The “residual kinase activity, ZAP70” value at ZAP70 worked out at 110. Besides, on TIE2, the “residual kinase activity, TIE2” value was 95. In addition, the “residual kinase activity, IR” value at IR is 97. In addition, the “residual kinase activity, IRR” value on IRR is reported as 66. Further, the “residual kinase activity, PDGFRA” value on PDGFRA came out at 59.
In the case of `CC(=O)Nc1nc2cc(F)ccc2s1` [Compound 03-77], the remaining activity at 100 µM at ERK5 is 38%; on CDK2-Cyclin A, 66%; on SIK3 it was 89%; at TSSK1 it was 84%; at TTBK1, 80%; on PIM2, 62%. Besides, the remaining activity at 100 µM at MST3 turned out to be 87%; at MST4, 88%; on MINK1 it was 65%; at MEKK1, 102%; on TESK1, 106%; on WNK1, 99%. For the same compound, the remaining activity at 100 µM on ZAP70 was determined as 109%; at TIE2, 112%; on IR, 87%; on IRR it was 57%; at PDGFRA, 59%.
